Data published in patent US20090203708A1, “NOVEL SUBSTITUTED-1-H-QUINAZOLINE-2,4-DIONE DERIVATIVES, PREPARATION METHOD THEREOF AND PHARMACEUTICAL COMPOSITION CONTAINING THE SAME” (Korea Research Institute of Chemical Technology, priority 2006, published 2009).

Columns and labels:
[1] = biological target: T1, HeLa cells transfected with human 5-HT6 receptor (Homo sapiens, UniProt P50406); test: Serotonin-stimulated cAMP accumulation in HeLa cells (EIA); assay type: cell-based; details: for effect on serotonin-stimulated cAMP accumulation (in words): HeLa cells, FIG. 1
T1 construct: expressed in transfected cells; host or cells: HeLa

[2] = biological target: human serotonin 5-HT6 receptor (Homo sapiens, UniProt P50406); test: [3H]LSD binding assay for cloned 5-HT6 receptors
[3] = biological target: 5-HT7 (human recombinant receptor, CHO-K1) (Homo sapiens, UniProt P34969); test: Radioligand binding assay, 5-HT7
D3 (hD3 receptor) = D3 (hD3 receptor) (Homo sapiens, UniProt P35462); test: Radioligand binding assay, dopamine D3
[4] = biological target: T2, 5-HT2c (human recombinant receptor, CHO-K1) (Homo sapiens, UniProt P28335); test: Radioligand binding assay, 5-HT2c
T2 sequence (P28335 33-458): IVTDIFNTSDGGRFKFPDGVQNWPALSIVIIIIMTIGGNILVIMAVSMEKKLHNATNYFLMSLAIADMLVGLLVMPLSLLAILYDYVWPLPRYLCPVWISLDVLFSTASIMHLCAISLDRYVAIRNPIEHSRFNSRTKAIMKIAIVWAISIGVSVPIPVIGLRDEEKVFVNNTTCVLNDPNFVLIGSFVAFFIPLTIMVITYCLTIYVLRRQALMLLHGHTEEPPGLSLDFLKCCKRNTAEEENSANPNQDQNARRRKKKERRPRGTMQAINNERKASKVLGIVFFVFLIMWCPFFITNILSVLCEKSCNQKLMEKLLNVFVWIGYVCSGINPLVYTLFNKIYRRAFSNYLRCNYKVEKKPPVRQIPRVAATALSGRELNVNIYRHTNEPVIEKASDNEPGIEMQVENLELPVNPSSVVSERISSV

D2 (hD2L receptor) = biological target: T3, D2 (hD2L receptor) (Homo sapiens, UniProt P14416); test: Radioligand binding assay, dopamine D2; details: [3H] spiperone 1 nM; read-out: Binding affinity IC50 D2
T3 construct: purchased BioSignal Packard Inc., Montreal, Canada
Description: (§1) Radioligand binding assays for dopamine receptor family (D1, D2 and D3) were performed according to the protocols provided by the manufacturer of receptor membranes (BioSignal Packard Inc., Montreal, Canada). The radioligands used were [^3H] spiperone (for hD2L and hD3 receptors, 1 nM) and [^3H] YM-09151-2 (hD4.2 receptor, 0.06 nM). Briefly, the buffer used in the D1, D2 and D3 receptor binding assay was 50 mM Tris-HCl (pH 7.4), containing 10 mM MgCl2 and 1 mM EDTA, or 50 mM Tris-HCl (pH 7.4), containing 5 mM MgCl2, 5 mM EDTA, 5 mM KCl, 1.5 mM CaCl2 and 120 mM NaCl. For [^3H] YM-09151-2 receptor binding assays, 50 mM Tris-HCl (pH 7.4) containing 5 mM MgCl2, 5 mM EDTA, 5 mM KCl and 1.5 mM CaCl2, was used as a buffer. Nonspecific binding was determined with haloperidol (10 μM) for D2 and D3 and clozapine (10 μM) for D4 receptors.
(§2) Competition binding studies were carried out with 7-8 concentrations of the test compound run in duplicate tubes, and isotherms from three assays were calculated by computerized nonlinear regression analysis (GraphPad Prism Program, San Diego, […]) to yield median inhibitory concentration (IC50) values.

D4 (hD4.2 receptor) = biological target: T4, D4 (hD4.2 receptor) (Homo sapiens, UniProt P21917, DEL265-296); test: Radioligand binding assay, dopamine D4; details: [3H] YM-09151-2 0.06 nM; read-out: Binding affinity IC50 D4
T4 construct: purchased BioSignal Packard Inc., Montreal, Canada
T4 sequence (P21917 with tags, fused parts or gaps DEL265-296): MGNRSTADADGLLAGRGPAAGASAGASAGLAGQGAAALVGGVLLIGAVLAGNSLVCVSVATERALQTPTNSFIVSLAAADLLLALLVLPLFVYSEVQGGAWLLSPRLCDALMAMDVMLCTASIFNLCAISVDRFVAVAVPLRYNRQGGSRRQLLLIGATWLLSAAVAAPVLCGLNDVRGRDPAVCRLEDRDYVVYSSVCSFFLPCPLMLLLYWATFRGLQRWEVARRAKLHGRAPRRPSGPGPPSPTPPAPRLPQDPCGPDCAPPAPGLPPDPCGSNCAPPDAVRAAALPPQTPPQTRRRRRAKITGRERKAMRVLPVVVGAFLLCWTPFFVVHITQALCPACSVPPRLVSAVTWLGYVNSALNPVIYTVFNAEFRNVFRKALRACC
Description: as §1, §2

[5] = biological target: T5, 5-HT1a (human recombinant receptor, CHO-K1) (Homo sapiens, UniProt P08908); test: Radioligand binding assay, 5-HT1a
T5 sequence (P08908 1-422): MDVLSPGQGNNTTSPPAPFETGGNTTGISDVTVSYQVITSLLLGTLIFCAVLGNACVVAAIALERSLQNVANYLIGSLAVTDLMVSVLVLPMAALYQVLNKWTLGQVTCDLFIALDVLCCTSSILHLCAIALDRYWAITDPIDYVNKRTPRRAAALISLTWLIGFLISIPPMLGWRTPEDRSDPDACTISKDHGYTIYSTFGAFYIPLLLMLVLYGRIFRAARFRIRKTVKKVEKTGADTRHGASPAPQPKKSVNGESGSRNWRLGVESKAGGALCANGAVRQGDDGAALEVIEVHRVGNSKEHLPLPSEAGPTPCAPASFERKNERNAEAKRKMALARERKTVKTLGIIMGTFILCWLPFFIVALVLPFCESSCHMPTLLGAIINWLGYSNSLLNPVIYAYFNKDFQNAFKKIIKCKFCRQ

[6] = biological target: 5-HT2a (human recombinant receptor, CHO-K1) (Homo sapiens, UniProt P28223); test: Radioligand binding assay, 5-HT2a
D1 receptor = D1 receptor (Homo sapiens, UniProt P21728); test: Radioligand binding assay, dopamine D1
Sequence of D1 receptor (P21728 whole entry): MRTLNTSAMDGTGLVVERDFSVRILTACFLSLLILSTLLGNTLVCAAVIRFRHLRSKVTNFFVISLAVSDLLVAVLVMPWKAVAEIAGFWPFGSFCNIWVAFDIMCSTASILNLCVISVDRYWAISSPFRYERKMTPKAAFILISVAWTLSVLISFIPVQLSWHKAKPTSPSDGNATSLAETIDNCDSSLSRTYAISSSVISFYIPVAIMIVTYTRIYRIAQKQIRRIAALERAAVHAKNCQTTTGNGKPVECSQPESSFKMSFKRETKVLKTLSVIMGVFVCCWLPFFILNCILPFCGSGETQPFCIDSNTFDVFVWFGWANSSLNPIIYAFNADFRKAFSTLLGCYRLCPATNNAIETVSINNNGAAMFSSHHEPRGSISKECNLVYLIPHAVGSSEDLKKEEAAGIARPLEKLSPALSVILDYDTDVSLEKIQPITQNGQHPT

Sequence of 5-HT7 (human recombinant receptor, CHO-K1) (P34969 whole entry): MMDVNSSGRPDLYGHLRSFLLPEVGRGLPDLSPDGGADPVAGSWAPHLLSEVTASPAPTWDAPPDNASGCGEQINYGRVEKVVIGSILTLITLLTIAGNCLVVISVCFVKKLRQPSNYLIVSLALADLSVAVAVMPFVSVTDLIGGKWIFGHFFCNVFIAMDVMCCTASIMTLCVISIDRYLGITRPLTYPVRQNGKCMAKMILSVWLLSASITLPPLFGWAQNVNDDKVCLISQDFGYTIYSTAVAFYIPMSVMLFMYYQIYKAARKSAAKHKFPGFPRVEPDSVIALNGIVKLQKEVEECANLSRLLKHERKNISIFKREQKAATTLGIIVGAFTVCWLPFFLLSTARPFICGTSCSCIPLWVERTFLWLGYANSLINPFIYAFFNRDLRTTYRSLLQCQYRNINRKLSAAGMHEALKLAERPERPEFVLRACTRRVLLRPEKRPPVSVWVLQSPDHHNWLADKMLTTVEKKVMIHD
Sequence of D3 (hD3 receptor) (P35462 whole entry): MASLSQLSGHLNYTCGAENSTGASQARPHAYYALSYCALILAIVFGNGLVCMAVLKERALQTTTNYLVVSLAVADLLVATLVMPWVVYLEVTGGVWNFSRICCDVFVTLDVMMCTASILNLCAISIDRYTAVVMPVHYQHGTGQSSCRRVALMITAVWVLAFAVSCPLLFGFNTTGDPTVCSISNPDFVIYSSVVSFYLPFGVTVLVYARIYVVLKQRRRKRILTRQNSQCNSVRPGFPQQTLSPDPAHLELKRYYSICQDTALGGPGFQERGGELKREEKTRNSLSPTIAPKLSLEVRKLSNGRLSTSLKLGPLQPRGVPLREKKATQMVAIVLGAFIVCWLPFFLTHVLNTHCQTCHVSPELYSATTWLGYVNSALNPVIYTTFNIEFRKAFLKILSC
T3 sequence (P14416 whole entry): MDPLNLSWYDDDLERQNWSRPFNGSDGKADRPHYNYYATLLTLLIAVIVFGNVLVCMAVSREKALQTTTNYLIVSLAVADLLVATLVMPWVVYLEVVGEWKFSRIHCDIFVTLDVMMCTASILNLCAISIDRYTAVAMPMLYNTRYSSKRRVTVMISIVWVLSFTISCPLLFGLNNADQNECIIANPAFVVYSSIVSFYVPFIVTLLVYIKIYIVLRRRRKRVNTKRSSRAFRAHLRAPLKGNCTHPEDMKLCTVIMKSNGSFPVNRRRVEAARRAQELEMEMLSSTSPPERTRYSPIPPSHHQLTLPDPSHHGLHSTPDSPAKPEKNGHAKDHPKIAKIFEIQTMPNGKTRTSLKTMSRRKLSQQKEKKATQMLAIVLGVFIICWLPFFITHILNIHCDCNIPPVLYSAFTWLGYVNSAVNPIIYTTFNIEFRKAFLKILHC
Sequence of 5-HT2a (human recombinant receptor, CHO-K1) (P28223 whole entry): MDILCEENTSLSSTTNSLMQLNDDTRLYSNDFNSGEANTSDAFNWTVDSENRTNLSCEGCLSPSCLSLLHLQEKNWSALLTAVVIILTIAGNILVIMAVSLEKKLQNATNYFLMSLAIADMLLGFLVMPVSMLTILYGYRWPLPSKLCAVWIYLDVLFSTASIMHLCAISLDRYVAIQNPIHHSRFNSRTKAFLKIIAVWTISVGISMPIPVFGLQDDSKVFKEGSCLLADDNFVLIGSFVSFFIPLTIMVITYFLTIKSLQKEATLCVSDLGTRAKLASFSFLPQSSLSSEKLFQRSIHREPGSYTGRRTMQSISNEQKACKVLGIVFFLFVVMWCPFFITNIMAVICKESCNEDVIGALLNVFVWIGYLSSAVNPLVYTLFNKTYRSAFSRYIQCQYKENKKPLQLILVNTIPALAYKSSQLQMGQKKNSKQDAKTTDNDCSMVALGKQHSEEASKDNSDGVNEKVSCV
T1 sequence (P50406 whole entry): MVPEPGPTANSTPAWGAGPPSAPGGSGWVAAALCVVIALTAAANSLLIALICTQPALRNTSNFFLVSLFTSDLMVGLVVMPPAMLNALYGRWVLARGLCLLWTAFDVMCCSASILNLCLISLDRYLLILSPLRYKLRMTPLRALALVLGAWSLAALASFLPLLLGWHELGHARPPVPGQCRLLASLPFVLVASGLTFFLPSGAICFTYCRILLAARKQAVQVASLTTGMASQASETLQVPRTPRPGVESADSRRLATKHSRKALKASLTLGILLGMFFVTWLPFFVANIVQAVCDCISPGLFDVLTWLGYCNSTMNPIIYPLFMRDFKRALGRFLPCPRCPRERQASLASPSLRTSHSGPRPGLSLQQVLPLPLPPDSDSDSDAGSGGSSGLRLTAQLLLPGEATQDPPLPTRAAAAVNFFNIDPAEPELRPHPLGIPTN
Sequence of human serotonin 5-HT6 receptor (P50406 whole entry): as above

IC50 (D1 receptor)	SMILES	antagonist activity compared with methiothepin [1]	effect on serotonin-stimulated cAMP accumulation (in words) [1]	IC50 [2]	melting point	IC50 [3]	IC50 (D3 (hD3 receptor))	IC50 [4]	IC50 (D2 (hD2L receptor))	IC50 (D4 (hD4.2 receptor))	IC50 [5]	IC50 [6]
	CN1CCN(c2cc(Cl)cc3c2c(=O)n(C)c(=O)n3Cc2ccccc2)CC1 [Example 1, 1-benzyl-7-chloro-3-methyl-5-(4-methyl-piperazin-1-yl)-1H-quinazoline-2,4-dione]	weaker antagonist activity than methiothepin	identified as 5-HT6 receptor antagonists	3 nM	173 to 175 °C							
	CN1CCN(c2cc(Cl)cc3c2c(=O)n(Cc2ccc(F)cc2)c(=O)n3Cc2ccccc2)CC1 [Example 13, 1-benzyl-7-chloro-3-(4-fluoro-benzyl)-5-(4-methyl-piperazin-1-yl)-1H-quinazoline-2,4-dione]	weaker antagonist activity than methiothepin	identified as 5-HT6 receptor antagonists	1.5 nM	110 to 114 °C	8640 nM	2380 nM	1800 nM	> 10000 nM	> 10000 nM	2770 nM	1390 nM
	CN1CCN(c2cc(Cl)cc3c2c(=O)n(Cc2ccccc2[N+](=O)[O-])c(=O)n3Cc2ccccc2)CC1 [Example 31, 1-benzyl-7-chloro-5-(4-methyl-piperazin-1-yl)-3-(2-nitro-benzyl)-1H-quinazoline-2,4-dione]			1.4 nM	164 to 169 °C	> 10000 nM	1240 nM	952 nM	> 10000 nM	> 10000 nM	2240 nM	49 nM
	CN1CCN(c2cc(Cl)cc3c2c(=O)n(Cc2cccc([N+](=O)[O-])c2)c(=O)n3Cc2ccccc2)CC1 [Example 32, 1-benzyl-7-chloro-5-(4-methyl-piperazin-1-yl)-3-(3-nitro-benzyl)-1H-quinazoline-2,4-dione]			0.6 nM	200 to 205 °C	> 10000 nM	276 nM	1560 nM	> 10000 nM	> 10000 nM	3800 nM	1800 nM
> 10000 nM	C[C@@H](c1ccccc1)n1c(=O)c2c(N3CCN(C)CC3)cc(Cl)cc2n(Cc2ccccc2)c1=O [Example 41, 1-benzyl-7-chloro-5-(4-methyl-piperazin-1yl)-3-[(S)-1-phenyl-ethyl]-1H-quinazoline-2,4-dione]			5 nM		2740 nM	362 nM	865 nM	744 nM	> 10000 nM	> 10000 nM	160 nM
	Cc1cc(C)cc(CCCn2c(=O)c3c(N4CCN(C)CC4)cc(Cl)cc3n(Cc3ccccc3)c2=O)c1 [Example 44, 1-benzyl-7-chloro-3-[3-(3,5-dimethyl-phenyl)-propyl]-5-(4-methyl-piperazin-1-yl)-1H-quinazoline-2,4-dione]			2 nM	67 to 73 °C	> 10000 nM	73 nM	2650 nM	987 nM	> 10000 nM	2780 nM	197 nM
	Cc1ccc(Cn2c(=O)c3c(N4CCN(C)CC4)cc(Cl)cc3n(Cc3ccccc3)c2=O)o1 [Example 47, 1-benzyl-7-chloro-3-(5-methyl-furan-2-ylmethyl)-5-(4-methyl-piperazin-1-yl)-1H-quinazoline-2,4-dione]			1.4 nM	132 to 136 °C	8740 nM	2810 nM	465 nM	> 10000 nM	> 10000 nM	1140 nM	830 nM
	CN1CCN(c2cc(Br)cc3c2c(=O)n(Cc2ccccc2)c(=O)n3Cc2ccccc2)CC1 [Example 54, 1,3-dibenzyl-7-bromo-5-(4-methyl-piperazin-1-yl)-1H-quinazoline-2,4-dione]			2.3 nM	80 to 84 °C	> 10000 nM	554 nM	646 nM	> 10000 nM	> 10000 nM	5010 nM	376 nM
	CN1CCN(c2cc(Br)cc3c2c(=O)n(Cc2ccccc2Cl)c(=O)n3Cc2ccccc2)CC1 [Example 55, 1-benzyl-7-bromo-3-(2-chloro-benzyl)-5-(4-methyl-piperazin-1-yl)-1H-quinazoline-2,4-dione]			1.5 nM	104 to 108 °C	5140 nM	1440 nM	252 nM	> 10000 nM	> 10000 nM	2720 nM	130 nM
	O=c1c2c(N3CCNCC3)cc(Cl)cc2n(Cc2ccccc2)c(=O)n1Cc1ccccc1F [Example 58, 1-benzyl-7-chloro-3-(2-fluoro-benzyl)-5-piperazin-1-yl-quinazoline-2,4-dione]			0.6 nM	98 to 109 °C	> 10000 nM	3130 nM	540 nM	> 10000 nM	> 10000 nM	2850 nM	220 nM
	O=c1c2c(N3CCNCC3)cc(Cl)cc2n(Cc2ccccc2)c(=O)n1Cc1ccccc1Cl [Example 59, 1-benzyl-7-chloro-3-(2-chloro-benzyl)-5-piperazin-1-yl-1H-quinazoline-2,4-dione]			1.7 nM	120 to 125 °C	7320 nM	381 nM	198 nM	> 10000 nM	> 10000 nM	2160 nM	132 nM
8620 nM	C[C@@H](c1ccccc1)n1c(=O)c2c(N3CCNCC3)cc(Cl)cc2n(Cc2ccccc2)c1=O [Example 69, 1-benzyl-7-chloro-3-[(S)-1-phenyl-ethyl]-5-piperazin-1yl-1H-quinazoline-2,4-dione]			2.7 nM		7890 nM	1800 nM	429 nM	> 10000 nM	> 10000 nM	5870 nM	293 nM
